Results reported in US20230212142A9, “Substituted 5-Cyclopropyl-1H-pyrazole-3-yl-amine Derivatives as Selective CDK12/13 Inhibitors” (Aurigene Discovery Technologies Limited, priority 2019, published 2023).

Columns and labels:
[1] = target: CDK13 (Homo sapiens, UniProt Q14004); experiment: Biochemical assay for CDK13 (LanthaScreen Eu Kinase Binding Assay); conditions: kinase tracer 236 100 nM, CDK13 5 nM
Method: LanthaScreen Eu Kinase Binding Assays are based on the binding and displacement of Alexa Fluor 647-labeled, ATP-competitive kinase inhibitor scaffold (kinase tracer) to the kinase of interest. Binding of the kinase tracer 236 (100 nM) to the CDK13 (5 nM) kinase is detected using a europium-labelled anti- GST tag antibody (2 nM), which binds to the kinase. Simultaneous binding of the tracer and antibody to the kinase results in a high degree of FRET (fluorescence resonance energy transfer) from the europium (Eu) donor fluorophore to the Alexa Fluor™ 647 acceptor fluorophore on the kinase tracer. Binding of an inhibitor to the kinase competes for binding with the tracer, resulting in a loss of FRET signal.

[2] = target: CDK7 (Homo sapiens, UniProt P50613); experiment: Biochemical assay for CDK7 (LANCE TR-FRET, ULight-MBP phosphorylation); conditions: CDK7 10 nM, ATP 1 mM/100 μM, 60 min pre-incubation
CDK7, sequence (P50613 whole entry, species assumed): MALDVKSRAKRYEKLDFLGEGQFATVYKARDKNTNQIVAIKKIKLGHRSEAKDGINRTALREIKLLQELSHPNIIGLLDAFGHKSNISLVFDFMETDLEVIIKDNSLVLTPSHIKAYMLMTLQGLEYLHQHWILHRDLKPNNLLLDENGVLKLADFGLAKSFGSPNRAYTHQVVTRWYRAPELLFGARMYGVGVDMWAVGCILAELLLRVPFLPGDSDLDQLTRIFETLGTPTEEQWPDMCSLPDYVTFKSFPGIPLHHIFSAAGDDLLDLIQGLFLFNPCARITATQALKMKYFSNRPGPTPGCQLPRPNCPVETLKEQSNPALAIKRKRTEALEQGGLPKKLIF
CDK7, sequence (P51946 whole entry partner, species assumed): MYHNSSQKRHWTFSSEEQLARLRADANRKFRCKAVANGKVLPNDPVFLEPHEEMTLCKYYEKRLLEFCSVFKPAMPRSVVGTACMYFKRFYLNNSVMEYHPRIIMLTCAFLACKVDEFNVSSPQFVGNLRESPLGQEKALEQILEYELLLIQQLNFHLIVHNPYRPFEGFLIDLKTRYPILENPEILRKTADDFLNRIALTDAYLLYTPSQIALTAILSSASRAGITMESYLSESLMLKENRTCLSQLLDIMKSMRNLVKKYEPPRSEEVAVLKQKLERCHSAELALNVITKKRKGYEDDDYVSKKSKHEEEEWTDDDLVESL
CDK7, sequence (P51948 whole entry partner, species assumed): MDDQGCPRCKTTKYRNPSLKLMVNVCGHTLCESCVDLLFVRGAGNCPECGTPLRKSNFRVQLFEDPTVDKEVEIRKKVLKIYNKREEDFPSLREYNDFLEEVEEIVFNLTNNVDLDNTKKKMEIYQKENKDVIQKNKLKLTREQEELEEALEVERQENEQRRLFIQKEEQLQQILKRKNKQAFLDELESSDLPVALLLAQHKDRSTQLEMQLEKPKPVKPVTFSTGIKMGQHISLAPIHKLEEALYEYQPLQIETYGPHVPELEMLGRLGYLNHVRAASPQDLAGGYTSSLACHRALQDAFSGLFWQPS
Method: The inhibitory activity of the test compounds was assessed by the LANCE TR-FRET assay, which detects the ATP-dependent phosphorylation of an ULight-myelin basic protein (MBP) substrate peptide (100 nM) by CDK7 (10 nM). Briefly, the enzyme reaction was run in reaction buffer (20 mM HEPES (pH 7.5), 10 mM MgCl2, 0.01% Triton x, 100 μM Sodium Orthovanadate, 1 mM DTT). The assay was performed in 384-well plate. The end concentration of the ATP substrate was 1 mM/100 μM, and that of the ULight-MBP substrate peptide was 100 nM, and of CDK7 was 10 nM. Pre-incubation of the compound and enzyme was performed for 60 min at room temperature. After 60 min incubation at room temperature, the reaction was terminated by the addition of 40 mM EDTA and 1 nM Eu-labeled anti-phospho-MBP-binding protein antibody in the buffer. Time-resolved fluorescence (excitation, 320 nm; emission donor, 615 nm; emission acceptor, 665 nm) was monitored by using 2030 multilabel reader Victor5 (PerkinElmer). The readout was calculated as (acceptor counts/donor counts)×1000. The IC50 values were derived by fitting a sigmoidal dose-response curve to a plot of assay readout over inhibitor concentration. All fits were computed with the program Prism 5.03 (Graph Pad Software, San Diego, Calif.).

[3] = target: CDK12 (Homo sapiens, UniProt Q9NYV4); experiment: Biochemical assay for CDK12 (kinase-tagged phage / qPCR competition binding); set-up: host or cells: E. coli BL21-derived host (T7 phage display) or HEK-293
CDK12, sequence (Q9NYV4 whole entry, species assumed): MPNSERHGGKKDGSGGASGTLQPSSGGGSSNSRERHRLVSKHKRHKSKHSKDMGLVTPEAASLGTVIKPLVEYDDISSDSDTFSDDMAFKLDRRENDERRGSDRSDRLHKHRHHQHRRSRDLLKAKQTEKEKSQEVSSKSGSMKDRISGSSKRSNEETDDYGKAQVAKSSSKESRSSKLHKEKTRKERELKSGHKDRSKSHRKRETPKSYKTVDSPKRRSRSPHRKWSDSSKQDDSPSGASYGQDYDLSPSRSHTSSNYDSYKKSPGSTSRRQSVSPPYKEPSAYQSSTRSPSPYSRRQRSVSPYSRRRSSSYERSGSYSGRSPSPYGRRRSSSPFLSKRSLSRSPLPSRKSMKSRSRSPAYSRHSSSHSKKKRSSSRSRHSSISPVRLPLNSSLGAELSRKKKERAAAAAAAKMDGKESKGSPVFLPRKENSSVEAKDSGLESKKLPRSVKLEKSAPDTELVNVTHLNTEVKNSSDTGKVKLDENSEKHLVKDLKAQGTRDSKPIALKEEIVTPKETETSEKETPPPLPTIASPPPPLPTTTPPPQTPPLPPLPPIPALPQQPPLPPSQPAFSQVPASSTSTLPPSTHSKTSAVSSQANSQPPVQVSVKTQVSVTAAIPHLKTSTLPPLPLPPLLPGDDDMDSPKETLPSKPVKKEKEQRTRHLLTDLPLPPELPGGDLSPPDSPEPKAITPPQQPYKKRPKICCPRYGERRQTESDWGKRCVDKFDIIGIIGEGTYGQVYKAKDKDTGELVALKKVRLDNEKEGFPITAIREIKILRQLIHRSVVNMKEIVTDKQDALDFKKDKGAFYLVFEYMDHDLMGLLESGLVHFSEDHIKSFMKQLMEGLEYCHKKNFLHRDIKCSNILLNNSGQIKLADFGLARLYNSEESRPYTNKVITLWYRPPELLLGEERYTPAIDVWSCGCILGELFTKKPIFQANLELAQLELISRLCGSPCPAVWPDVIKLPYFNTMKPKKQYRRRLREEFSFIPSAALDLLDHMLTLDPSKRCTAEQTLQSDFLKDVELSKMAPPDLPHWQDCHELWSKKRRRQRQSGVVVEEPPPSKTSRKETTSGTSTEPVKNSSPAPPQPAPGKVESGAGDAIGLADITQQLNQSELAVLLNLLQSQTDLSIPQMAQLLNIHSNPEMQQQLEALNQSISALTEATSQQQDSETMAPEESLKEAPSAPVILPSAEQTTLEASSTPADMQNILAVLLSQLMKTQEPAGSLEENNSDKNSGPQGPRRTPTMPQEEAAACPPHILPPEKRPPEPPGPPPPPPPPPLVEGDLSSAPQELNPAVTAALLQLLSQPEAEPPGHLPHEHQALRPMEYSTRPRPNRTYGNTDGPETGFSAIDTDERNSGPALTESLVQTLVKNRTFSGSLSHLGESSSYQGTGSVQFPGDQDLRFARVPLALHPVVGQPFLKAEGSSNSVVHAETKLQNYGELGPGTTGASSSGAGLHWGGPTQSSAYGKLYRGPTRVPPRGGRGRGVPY
Method: Kinase-tagged T7 phage strains were grown in parallel in 24-well blocks in an E. coli host derived from the BL21 strain. E. coli were grown to log-phase and infected with T7 phage from a frozen stock (multiplicity of infection=0.4) and incubated with shaking at 32° C. until lysis (90-150 minutes). The lysates were centrifuged (6,000×g) and filtered (0.2 μm) to remove cell debris. The remaining kinases were produced in HEK-293 cells and subsequently tagged with DNA for qPCR detection. Streptavidin-coated magnetic beads were treated with biotinylated small molecule ligands for 30 minutes at room temperature to generate affinity resins for kinase assays. The liganded beads were blocked with excess biotin and washed with blocking buffer (SeaBlock (Pierce), 1% BSA, 0.05% Tween 20, 1 mM
DTT) to remove unbound ligand and to reduce non-specific phage binding. Binding reactions were assembled by combining kinases, liganded affinity beads, and test compounds in lx binding buffer (20% SeaBlock, 0.17×PBS, 0.05% Tween 20, 6 mM DTT). Test compounds were prepared as 40× stocks in 100% DMSO and directly diluted into the assay. All reactions were performed in polypropylene 384-well plates in a final volume of 0.02 ml. The assay plates were incubated at room temperature with shaking for 1 hour and the affinity beads were washed with wash buffer (1 PBS, 0.05% Tween 20). The beads were then re-suspended in elution buffer (1× PBS, 0.05% Tween 20, 0.5 μM non-biotinylated affinity ligand) and incubated at room temperature with shaking for 30 minutes. The kinase concentration in the eluates was measured by qPCR.

CDK13, sequence (Q14004 whole entry, species assumed): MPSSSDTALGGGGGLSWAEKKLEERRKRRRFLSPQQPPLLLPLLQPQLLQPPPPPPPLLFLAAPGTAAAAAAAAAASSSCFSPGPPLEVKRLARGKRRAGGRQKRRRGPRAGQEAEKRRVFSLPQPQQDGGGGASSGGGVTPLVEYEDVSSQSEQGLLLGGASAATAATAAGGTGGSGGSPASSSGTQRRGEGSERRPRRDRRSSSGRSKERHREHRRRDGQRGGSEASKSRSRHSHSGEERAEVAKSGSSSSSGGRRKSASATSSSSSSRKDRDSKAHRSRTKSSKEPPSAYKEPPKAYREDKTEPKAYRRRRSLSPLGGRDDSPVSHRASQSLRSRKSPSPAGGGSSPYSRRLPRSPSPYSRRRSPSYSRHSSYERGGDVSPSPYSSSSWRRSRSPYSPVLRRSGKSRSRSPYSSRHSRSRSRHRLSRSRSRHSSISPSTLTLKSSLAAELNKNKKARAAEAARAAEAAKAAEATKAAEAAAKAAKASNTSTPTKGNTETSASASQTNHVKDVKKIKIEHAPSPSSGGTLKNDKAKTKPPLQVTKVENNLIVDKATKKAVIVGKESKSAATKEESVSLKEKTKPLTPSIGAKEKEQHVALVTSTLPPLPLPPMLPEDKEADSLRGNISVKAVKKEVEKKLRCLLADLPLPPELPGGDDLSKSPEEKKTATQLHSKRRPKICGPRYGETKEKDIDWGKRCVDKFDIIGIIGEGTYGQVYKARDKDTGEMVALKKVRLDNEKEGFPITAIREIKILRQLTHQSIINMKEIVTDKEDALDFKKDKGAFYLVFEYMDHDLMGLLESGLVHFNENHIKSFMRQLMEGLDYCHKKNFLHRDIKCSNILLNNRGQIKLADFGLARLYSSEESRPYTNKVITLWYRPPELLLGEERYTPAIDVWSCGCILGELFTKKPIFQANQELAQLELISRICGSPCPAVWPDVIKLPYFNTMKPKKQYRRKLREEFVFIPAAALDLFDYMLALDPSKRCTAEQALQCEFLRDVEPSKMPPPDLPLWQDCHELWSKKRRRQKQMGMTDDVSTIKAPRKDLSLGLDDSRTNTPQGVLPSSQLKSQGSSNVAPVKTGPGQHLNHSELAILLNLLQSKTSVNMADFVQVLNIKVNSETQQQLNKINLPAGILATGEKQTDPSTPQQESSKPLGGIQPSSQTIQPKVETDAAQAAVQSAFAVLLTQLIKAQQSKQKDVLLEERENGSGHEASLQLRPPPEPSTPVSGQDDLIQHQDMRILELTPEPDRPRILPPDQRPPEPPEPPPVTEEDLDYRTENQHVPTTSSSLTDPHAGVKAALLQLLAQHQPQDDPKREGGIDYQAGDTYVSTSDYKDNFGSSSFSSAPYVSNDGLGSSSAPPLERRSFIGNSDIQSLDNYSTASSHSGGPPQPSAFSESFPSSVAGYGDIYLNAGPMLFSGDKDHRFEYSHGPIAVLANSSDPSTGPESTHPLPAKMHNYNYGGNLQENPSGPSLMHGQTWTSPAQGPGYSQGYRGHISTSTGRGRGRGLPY
CDK13, sequence (O75909 whole entry partner, species assumed): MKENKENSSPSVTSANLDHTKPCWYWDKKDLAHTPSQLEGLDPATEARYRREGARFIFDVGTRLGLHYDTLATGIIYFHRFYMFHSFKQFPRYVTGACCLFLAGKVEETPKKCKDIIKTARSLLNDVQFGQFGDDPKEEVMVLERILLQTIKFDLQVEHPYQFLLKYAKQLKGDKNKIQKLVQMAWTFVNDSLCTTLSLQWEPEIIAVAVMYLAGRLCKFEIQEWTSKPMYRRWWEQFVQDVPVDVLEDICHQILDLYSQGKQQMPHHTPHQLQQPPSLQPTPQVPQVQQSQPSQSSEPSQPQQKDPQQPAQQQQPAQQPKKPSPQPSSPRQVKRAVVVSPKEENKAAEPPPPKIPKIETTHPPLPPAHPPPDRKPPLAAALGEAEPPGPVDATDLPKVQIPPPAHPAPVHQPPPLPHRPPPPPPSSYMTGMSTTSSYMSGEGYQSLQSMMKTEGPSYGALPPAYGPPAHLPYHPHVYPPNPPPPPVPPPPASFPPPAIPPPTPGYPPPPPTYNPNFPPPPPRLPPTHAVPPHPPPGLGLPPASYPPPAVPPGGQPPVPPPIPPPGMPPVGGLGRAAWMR

| Compound | IC50 [1] [nM] | IC50 [2] [nM] | Kd [3] [nM] |
| --- | --- | --- | --- |
| C=CC(=O)NCc1ccc(-c2ccc(C(C)C(=O)Nc3cc(C4CC4)[nH]n3)cc2)cc1 (racemic) [Compound 9, N-((4′-(1-((5-cyclopropyl-1H-pyrazol-3-yl)amino)-1-oxopropan-2-yl)-[1,1′-biphenyl]-4-yl)methyl)acrylamide] | 16.9 | 5450 | > 500 |
| C=CC(=O)Nc1ccc(-c2ccc(C(C)C(=O)Nc3cc(C4CC4)[nH]n3)cc2)cc1 (single isomer, unassigned) [Compound 3, N-(4′-(1-((5-cyclopropyl-1H-pyrazol-3-yl)amino)-1-oxopropan-2-yl)-[1,1′-biphenyl]-4-yl)acrylamide] | 18 | 1900 |  |
| CC(C(=O)Nc1cc(C2CC2)[nH]n1)c1ccc(-c2ccc(NC(=O)/C=C/CN3CCOCC3)nc2)cc1 (single isomer, unassigned) [Compound 6, (E)-N-(5-(4-(1-((5-cyclopropyl-1H-pyrazol-3-yl)amino)-1-oxopropan-2-yl)phenyl)pyridin-2-yl)-4-morpholinobut-2-enamide] | 500 | > 10000 | 50 to 500 |
| CC(C(=O)Nc1cc(C2CC2)[nH]n1)c1ccc(-c2ccc(NC(=O)/C=C/CN3CCOCC3)nc2)cc1 (single isomer, unassigned) [Compound 7, (E)-N-(5-(4-(1-((5-cyclopropyl-1H-pyrazol-3-yl)amino)-1-oxopropan-2-yl)phenyl)pyridin-2-yl)-4-morpholinobut-2-enamide] | 5 | 1020 | < 50 |
| CC(C(=O)Nc1cc(C2CC2)[nH]n1)c1ccc(-c2ccc(CNC(=O)/C=C/CN3CCOCC3)nc2)cc1 (single isomer, unassigned) [Compound 13, (E)-N-((5-(4-(1-((5-cyclopropyl-1H-pyrazol-3-yl)amino)-1-oxopropan-2-yl)phenyl)pyridin-2-yl)methyl)-4-morpholinobut-2-enamide] | 2060 | > 10000 | > 500 |
| CC(C(=O)Nc1cc(C2CC2)[nH]n1)c1ccc(-c2ccc(CNC(=O)/C=C/CN3CCOCC3)nc2)cc1 (single isomer, unassigned) [Compound 14, (E)-N-((5-(4-(1-((5-cyclopropyl-1H-pyrazol-3-yl)amino)-1-oxopropan-2-yl)phenyl)pyridin-2-yl)methyl)-4-morpholinobut-2-enamide] | 3.9 | 1120 | < 50 |
| CC(C(=O)Nc1cc(C2CC2)[nH]n1)c1ccc(-c2ccc(CNC(=O)/C=C/CN3CCOCC3)cc2)cc1 (single isomer, unassigned) [Compound 17, (E)-N-((4′-(1-((5-cyclopropyl-1H-pyrazol-3-yl)amino)-1-oxopropan-2-yl)-[1,1′-biphenyl]-4-yl)methyl)-4-morpholinobut-2-enamide] | 53.6 | 1560 | < 50 |
| C=CC(=O)NCc1ccc(C(C)C(=O)Nc2cc(C3CC3)[nH]n2)cc1 (single isomer, unassigned) [Compound 25, N-(4-(1-((5-cyclopropyl-1H-pyrazol-3-yl)amino)-1-oxopropan-2-yl)benzyl)acrylamide] |  |  | > 500 |
| CC(C(=O)Nc1cc(C2CC2)[nH]n1)c1ccc(-c2ccc(NC(=O)/C=C/CN3CCOCC3)nc2)cc1 (stereo not shown) [Compound 5, (E)-N-(5-(4-(1-((5-cyclopropyl-1H-pyrazol-3-yl)amino)-1-oxopropan-2-yl)phenyl)pyridin-2-yl)-4-morpholinobut-2-enamide] | 24 | 1700 |  |
| CC(C(=O)Nc1cc(C2CC2)[nH]n1)c1ccc(-c2ccc(NC(=O)/C=C/CN3CCOCC3)cc2)cc1 (stereo not shown) [Compound 12, (E)-N-(4′-(1-((5-cyclopropyl-1H-pyrazol-3-yl)amino)-1-oxopropan-2-yl)-[1,1′-biphenyl]-4-yl)-4-morpholinobut-2-enamide] | 60.8 |  | < 50 |
| CC(C(=O)Nc1cc(C2CC2)[nH]n1)c1ccc(-c2ccc(CNC(=O)/C=C/CN3CCOCC3)cc2)cc1 (stereo not shown) [Compound 15, (E)-N-((4′-(1-((5-cyclopropyl-1H-pyrazol-3-yl)amino)-1-oxopropan-2-yl)-[1,1′-biphenyl]-4-yl)methyl)-4-morpholinobut-2-enamide] | 257 | 3660 | < 50 |

Further compounds by falling IC50 [1], results first:

| IC50 [1] [nM] | IC50 [2] [nM] | Kd [3] [nM] | Compound |
| --- | --- | --- | --- |
| 804 | > 10000 | > 500 | C=CC(=O)NCc1ccc(-c2ccc(C(C)C(=O)Nc3cc(C4CC4)[nH]n3)cc2)cc1 (single isomer, unassigned) [Compound 10, N-((4′-(1-((5-cyclopropyl-1H-pyrazol-3-yl)amino)-1-oxopropan-2-yl)-[1,1′-biphenyl]-4-yl)methyl)acrylamide] |
| 328 |  | 50 to 500 | C=CC(=O)NCc1ccc(C(C)C(=O)Nc2cc(C3CC3)[nH]n2)cn1 (stereo not shown) [Compound 26, N-((5-(1-((5-cyclopropyl-1H-pyrazol-3-yl)amino)-1-oxopropan-2-yl)pyridin-2-yl)methyl)acrylamide] |
| 280 | > 10000 | 50 to 500 | C=CC(=O)NCc1ccc(C(C)C(=O)Nc2cc(C3CC3)[nH]n2)cc1 (racemic) [Compound 23, N-(4-(1-((5-cyclopropyl-1H-pyrazol-3-yl)amino)-1-oxopropan-2-yl)benzyl)acrylamide] |
| 236 |  | 50 to 500 | C=CC(=O)NCc1ccc(C(C)C(=O)Nc2cc(C3CC3)[nH]n2)cc1 (single isomer, unassigned) [Compound 24, N-(4-(1-((5-cyclopropyl-1H-pyrazol-3-yl)amino)-1-oxopropan-2-yl)benzyl)acrylamide] |
| 212 | > 10000 | > 500 | CC(C(=O)Nc1cc(C2CC2)[nH]n1)c1ccc(-c2ccc(CNC(=O)/C=C/CN3CCOCC3)cc2)cc1 (single isomer, unassigned) [Compound 16, (E)-N-((4′-(1-((5-cyclopropyl-1H-pyrazol-3-yl)amino)-1-oxopropan-2-yl)-[1,1′-biphenyl]-4-yl)methyl)-4-morpholinobut-2-enamide] |
| 96 | 2120 |  | C=CC(=O)NCc1ccc(-c2ccc(C(C)C(=O)Nc3cc(C4CC4)[nH]n3)cc2)cc1 (single isomer, unassigned) [Compound 11, N-((4′-(1-((5-cyclopropyl-1H-pyrazol-3-yl)amino)-1-oxopropan-2-yl)-[1,1′-biphenyl]-4-yl)methyl)acrylamide] |
| 24 | 11400 | 50 to 500 | C=CC(=O)Nc1ccc(-c2ccc(C(C)C(=O)Nc3cc(C4CC4)[nH]n3)cc2)cc1 (racemic) [Compound 1, N-(4′-(1-((5-cyclopropyl-1H-pyrazol-3-yl)amino)-1-oxopropan-2-yl)-[1,1′-biphenyl]-4-yl)acrylamide] |
| 13 |  | < 50 | C=CC(=O)NC(CC)c1ccc(-c2ccc([C@H](C)C(=O)Nc3cc(C4CC4)[nH]n3)cc2)cn1 (stereo partly drawn) [Compound 19, N-(1-(5-(4-((S)-1-((5-cyclopropyl-1H-pyrazol-3-yl)amino)-1-oxopropan-2-yl)phenyl)pyridin-2-yl)propyl)acrylamide] |
| 4 |  |  | C=CC(=O)NCc1ccc(-c2ccc(C(C)C(=O)Nc3cc(C4CC4)[nH]n3)cn2)cn1 (stereo not shown) [Compound 4, N-((5-(1-((5-cyclopropyl-1H-pyrazol-3-yl)amino)-1-oxopropan-2-yl)[2,3′-bipyridin]-6′-yl)methyl)acrylamide] |
